Test results from PubChem BioAssay AID256 (DTP/NCI, 2004).
Where “and” joins values, the source holds several entries; their conditions need not be identical. Identical values can stand only once. Inconclusive results and toxic doses are left out. The calls were made as follows: active = survival T/C of 150% or more; inactive = T/C below 125% in these data.

Tested on: CD2F1 mice, L1210 leukemia ip, survival T/C
Test: NCI In Vivo Anticancer Drug Screen. Data for tumor model L1210 Leukemia (intraperitoneal) in CD2F1 (CDF1) mice
Conditions: higher = longer survival
Summary of the method: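 Implant tumor; dose compound or vehicle; measure endpoint in both groups; report treated divided by control.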

[1] = endpoint: mean survival time, dose: 12.5 mg/kg/injection, schedule: Q01DX005 (ip), vehicle: distilled water + Tween-80
[2] = endpoint: mean survival time, dose: 12.5 mg/kg/injection, schedule: Q01DX005 (ip), vehicle: water
[3] = endpoint: mean survival time, dose: 25.0 mg/kg/injection, schedule: Q01DX005 (ip), vehicle: distilled water + Tween-80
[4] = endpoint: mean survival time, dose: 25.0 mg/kg/injection, schedule: Q01DX005 (ip), vehicle: water
[5] = endpoint: mean survival time, dose: 50.0 mg/kg/injection, schedule: Q01DX005 (ip), vehicle: distilled water + Tween-80
[6] = endpoint: mean survival time, dose: 50.0 mg/kg/injection, schedule: Q01DX005 (ip), vehicle: water
[7] = endpoint: mean survival time, dose: 100.0 mg/kg/injection, schedule: Q01DX005 (ip), vehicle: distilled water + Tween-80
[8] = endpoint: mean survival time, dose: 100.0 mg/kg/injection, schedule: Q01DX005 (ip), vehicle: water
[9] = endpoint: mean survival time, dose: 200.0 mg/kg/injection, schedule: Q01DX005 (ip), vehicle: distilled water + Tween-80
[10] = endpoint: mean survival time, dose: 200.0 mg/kg/injection, schedule: Q01DX005 (ip), vehicle: water
[11] = endpoint: mean survival time, dose: 100.0 mg/kg/injection, schedule: Q04DX002 (ip), vehicle: saline
[12] = endpoint: mean survival time, dose: 200.0 mg/kg/injection, schedule: Q04DX002 (ip), vehicle: saline
[13] = endpoint: mean survival time, dose: 100.0 mg/kg/injection, schedule: Q01DX009 (ip), vehicle: saline with Tween-80
[14] = endpoint: mean survival time, dose: 100.0 mg/kg/injection, schedule: Q04DX003 (ip), vehicle: saline with Tween-80
[15] = endpoint: mean survival time, dose: 200.0 mg/kg/injection, schedule: Q04DX003 (ip), vehicle: saline with Tween-80
[16] = endpoint: mean survival time, dose: 400.0 mg/kg/injection, schedule: Q04DX003 (ip), vehicle: saline with Tween-80
[17] = endpoint: mean survival time, dose: 200.0 mg/kg/injection, schedule: Q01DX009 (ip), vehicle: saline with Tween-80
[18] = endpoint: mean survival time, dose: 400.0 mg/kg/injection, schedule: Q01DX009 (ip), vehicle: saline with Tween-80
[19] = endpoint: mean survival time, dose: 100.0 mg/kg/injection, schedule: Q01DX001 (ip), vehicle: saline
[20] = endpoint: mean survival time, dose: 200.0 mg/kg/injection, schedule: Q01DX001 (ip), vehicle: saline
[21] = endpoint: mean survival time, dose: 400.0 mg/kg/injection, schedule: Q01DX001 (ip), vehicle: saline

Measured: T/C

CC(C)=NNc1nc2c(N)ncnc2n1C1OC(CO)C(O)C1O (centres undefined)
inactive: [1] 97 % of control | [2] 96 % of control | [3] 97 % of control | [4] 94 % of control | [5] 97 % of control | [6] 99 % of control | [7] 97 % of control | [8] 99 % of control | [9] 100 % of control | [10] 97 % of control

COc1cc2cccc(N)c2cc1OC
inactive: endpoint: mean survival time, dose: 12.5 mg/kg/injection, schedule: Q01DX009 (ip), vehicle: water 95 % of control | endpoint: mean survival time, dose: 25.0 mg/kg/injection, schedule: Q01DX009 (ip), vehicle: water 95 % of control | endpoint: mean survival time, dose: 50.0 mg/kg/injection, schedule: Q01DX009 (ip), vehicle: water 95 % of control

CC(=O)OCC1OC(n2ncc3c(Cl)ncnc32)C(OC(C)=O)C1OC(C)=O (centres undefined)
inactive: [2] 93 % of control | [4] 93 % of control | [6] 101 % of control | [8] 112 % of control | [10] 103 % of control

CC(C)C1OCC(C)(C)C(C)O1 (centres undefined)
inactive: endpoint: mean survival time, dose: 50.0 mg/kg/injection, schedule: Q04DX002 (ip), vehicle: saline 96 % of control | [11] 96 % of control | [12] 93 % of control

CCN(CC)CCN1Cc2ccccc2C1
inactive: endpoint: mean survival time, dose: 25.0 mg/kg/injection, schedule: Q01DX009 (ip), vehicle: saline with Tween-80 102 % of control | endpoint: mean survival time, dose: 50.0 mg/kg/injection, schedule: Q01DX009 (ip), vehicle: saline with Tween-80 94 % of control | [13] 96 % of control and 107 % of control

O=C(Nc1ccccn1)C(O)C(O)C(O)C(O)CO (centres undefined)
inactive: endpoint: mean survival time, dose: 12.5 mg/kg/injection, schedule: Q04DX003 (ip), vehicle: saline with Tween-80 96 % of control | endpoint: mean survival time, dose: 25.0 mg/kg/injection, schedule: Q04DX003 (ip), vehicle: saline with Tween-80 101 % of control | endpoint: mean survival time, dose: 50.0 mg/kg/injection, schedule: Q04DX003 (ip), vehicle: saline with Tween-80 89 % of control

CNNCc1ccc(C(=O)NC(C)C)cc1
inactive: endpoint: mean survival time, dose: 3.13 mg/kg/injection, schedule: Q01DX010 (ip), vehicle: saline 96 % of control | endpoint: mean survival time, dose: 6.25 mg/kg/injection, schedule: Q01DX010 (ip), vehicle: saline 106 % of control | endpoint: mean survival time, dose: 6.25 mg/kg/injection, schedule: Q01DX010 (sc), vehicle: saline 103 % of control | endpoint: mean survival time, dose: 12.5 mg/kg/injection, schedule: Q01DX010 (ip), vehicle: saline 108 % of control | endpoint: mean survival time, dose: 25.0 mg/kg/injection, schedule: Q01DX010 (oral), vehicle: saline 120 % of control | endpoint: mean survival time, dose: 25.0 mg/kg/injection, schedule: Q01DX010 (sc), vehicle: saline 116 % of control | endpoint: mean survival time, dose: 29.7 mg/kg/injection, schedule: Q01DX009 (ip), vehicle: saline 110 % of control | endpoint: mean survival time, dose: 38.0 mg/kg/injection, schedule: Q03DX004 (ip), vehicle: saline 100 % of control | endpoint: mean survival time, dose: 50.0 mg/kg/injection, schedule: Q01DX010 (sc), vehicle: saline 120 % of control | endpoint: mean survival time, dose: 100.0 mg/kg/injection, schedule: Q04DX003 (ip), vehicle: saline 112 % of control | endpoint: mean survival time, dose: 150.0 mg/kg/injection, schedule: Q03DX004 (ip), vehicle: saline 108 % of control
active: endpoint: mean survival time, dose: 133.0 mg/kg/injection, schedule: Q01DX009 (ip), vehicle: saline 159 % of control and 170 % of control | endpoint: mean survival time, dose: 200.0 mg/kg/injection, schedule: Q01DX007 (ip), vehicle: saline 179 % of control

Clc1ccc(-c2nnc(-c3ccc(Cl)cc3)nn2)cc1
inactive: [14] 96 % of control | [15] 90 % of control | [16] 88 % of control

CCOC(=O)/C(O)=C\c1cc(OC)nnc1Cl
inactive: endpoint: mean survival time, dose: 12.5 mg/kg/injection, schedule: Q04DX002 (ip), vehicle: saline with Tween-80 114 % of control | endpoint: mean survival time, dose: 25.0 mg/kg/injection, schedule: Q04DX002 (ip), vehicle: saline with Tween-80 101 % of control | endpoint: mean survival time, dose: 50.0 mg/kg/injection, schedule: Q04DX002 (ip), vehicle: saline with Tween-80 101 % of control

O=C(O)C1CC(Br)C(Br)CC1C(=O)O (centres undefined)
inactive: [13] 95 % of control | [17] 100 % of control | [18] 91 % of control

COc1ccc2c(c1OC)C(=O)OC2c1cc(Br)c(O)c(C2OC(=O)c3c2ccc(OC)c3OC)c1 (centres undefined)
inactive: [13] 101 % of control | [14] 92 % of control | [17] 101 % of control | [15] 93 % of control | [18] 98 % of control | [16] 90 % of control

CC(O)C1OC(n2cnc3c(N)ncnc32)CC1N (centres undefined)
inactive: [1] 101 % of control | [3] 103 % of control | [5] 100 % of control | [7] 100 % of control | [9] 100 % of control

O=[N+]([O-])c1ccc2c(c1)C(=Nc1ccc3ccccc3c1)c1ccccc1-2
inactive: [14] 98 % of control | [15] 86 % of control

O=C(CBr)N1c2ccccc2Sc2ccc(C(F)(F)F)cc21
inactive: endpoint: mean survival time, dose: 1.56 mg/kg/injection, schedule: Q01DX009 (ip), vehicle: other 100 % of control | endpoint: mean survival time, dose: 3.13 mg/kg/injection, schedule: Q01DX009 (ip), vehicle: other 97 % of control | endpoint: mean survival time, dose: 6.25 mg/kg/injection, schedule: Q01DX009 (ip), vehicle: other 102 % of control | endpoint: mean survival time, dose: 12.5 mg/kg/injection, schedule: Q01DX009 (ip), vehicle: other 96 % of control | endpoint: mean survival time, dose: 25.0 mg/kg/injection, schedule: Q01DX009 (ip), vehicle: other 102 % of control

COc1ccc(C2=N/C(=C\c3ccccc3)C(=O)O2)cc1
inactive: [13] 96 % of control | [14] 93 % of control | [17] 90 % of control | [15] 92 % of control | [18] 98 % of control | [16] 89 % of control

c1ccc2c(c1)Cc1c(NC3=NCCO3)cccc1-2
inactive: [14] 98 % of control | [15] 109 % of control | [16] 101 % of control

Cc1ccc(NC(=O)c2ccc(Cl)cc2)c(Br)c1
inactive: [14] 103 % of control | [15] 105 % of control | [16] 97 % of control

CC1=CSC2=NC(=O)CCN12
inactive: [19] 93 % of control | [20] 100 % of control | [21] 90 % of control

O=S(=O)(O)c1cc2cc(S(=O)(=O)O)c(O)cc2cc1O.[NH-]C1CCCCC1[NH-].[Pt+2]
inactive: endpoint: median survival time, dose: 3.12 mg/kg/injection, schedule: Q04DX003 (ip), vehicle: saline 114 % of control and 118 % of control | endpoint: median survival time, dose: 6.25 mg/kg/injection, schedule: Q04DX003 (ip), vehicle: saline 118 % of control and 110 % of control | endpoint: median survival time, dose: 12.5 mg/kg/injection, schedule: Q04DX003 (ip), vehicle: saline 113 % of control and 112 % of control
active: endpoint: median survival time, dose: 50.0 mg/kg/injection, schedule: Q04DX003 (ip), vehicle: saline 158 % of control | endpoint: median survival time, dose: 100.0 mg/kg/injection, schedule: Q04DX003 (ip), vehicle: saline 154 % of control and 207 % of control | endpoint: median survival time, dose: 200.0 mg/kg/injection, schedule: Q04DX003 (ip), vehicle: saline 229 % of control and 365 % of control

S=C(NCCCCCNC(=S)Nc1ccccc1)Nc1ccccc1
inactive: endpoint: mean survival time, dose: 100.0 mg/kg/injection, schedule: Q04DX003 (ip), vehicle: acetone 96 % of control | endpoint: mean survival time, dose: 200.0 mg/kg/injection, schedule: Q04DX003 (ip), vehicle: acetone 108 % of control

NC1CCC(=O)NC1c1ccccc1 (centres undefined)
inactive: [11] 97 % of control | [12] 101 % of control | endpoint: mean survival time, dose: 400.0 mg/kg/injection, schedule: Q04DX002 (ip), vehicle: saline 101 % of control

CCCOS(=O)(=O)O
inactive: [19] 106 % of control | [20] 102 % of control | [21] 106 % of control

Cc1cc(C)cc(OCCOCCOc2cc(C)cc(C)c2)c1
inactive: [14] 94 % of control | [15] 97 % of control | [16] 100 % of control

CN(C)Cc1ccc2ccccc2c1
inactive: endpoint: mean survival time, dose: 50.0 mg/kg/injection, schedule: Q01DX001 (ip), vehicle: saline 102 % of control | [19] 97 % of control

c1ccc(Sc2cccc3ccccc23)cc1
inactive: [14] 102 % of control | [15] 93 % of control | [16] 91 % of control
